Laboratory results taken from patent US5786344A, “Camptothecin drug combinations and methods with reduced side effects” (priority 1995, dated 1998).

Assays:
[1] = rats, cited from earlier work
UDP-GT = assay: in vivo
Description: (§1) Of these 2 types of inducers, phenobarbital has been used as an […] and a mildly sedative agent in humans. The inventors' objective here was to investigate the effect of phenobarbital administration on the glucuronidation of SN-38 in rats.
(§2) Animal protocol: Female Wistar rats (~200 gm) having a permanent catheter installed in the right jugular vein were obtained from Charles River Breeding Laboratories (Wilmington, Mass.).
(§3) Three rats were given a single intraperitoneal dose of 100 mg/kg phenobarbital in physiological saline followed by 0.1% (w/v) phenobarbital in drinking water for four days. […] After each sample the catheter was flushed with an equal volume of physiologic saline. The samples were immediately centrifuged at 2500×g for 10 minutes and the plasma obtained was stored at -70° C. until analysis.
(§4) Data Analysis: The plasma concentration-time profile of the control and pretreated groups of rats were analyzed using non-compartmental methods (PCNONLIN, SCI, Lexington, Ky.). […] The nonparametric Mann-Whitney test was used to test for differences in AUC between the control and pretreated groups.

in vivo = details: rat, in vivo, iv, 20 mg/kg
Description: as §1, §2, §3, §4

In the case of CCc1c2c(nc3ccc(OC(=O)N4CCC(N5CCCCC5)CC4)cc13)-c1cc3c(c(=O)n1C2)COC(=O)[C@]3(O)CC [CPT-11, 7-ethyl-10-[4-(1-piperidino)-1-piperidino)carbonyloxycamptot hecin], the “biliary radioactivity excreted over 24 h as” value ([1]; 24 h) is listed as 55%, the “biliary radioactivity reabsorbed from the intestine” value [1] is listed as “approximately 18%” and the decrease in availability (UDP-GT; UDP-GT induction by phenobarbital) is listed as about 2 fold. The “decline in AUC” value (UDP-GT; phenobarbital pretreated) was 60%, the “Change in AUC CPT-11” value (UDP-GT; phenobarbital pretreated vs control) was -60.29% and the AUC at 6 h (in vivo; AUC CPT-11, control, CPT-11 20 mg/kg iv, n = 4, 0-6 h) was 7700 ± 2670 ng·h/mL. The AUC at 6 h (in vivo; AUC CPT-11, phenobarbital pretreated, CPT-11 20 mg/kg, n = 2) was 3060 ng·h/mL.
